The text below walks through data of ChEMBL document CHEMBL5154820 (Eur J Med Chem, 2022).

Data set [1] in a line: Nephrotoxicity in BABL/c mouse assessed as increased uric acid level at 60 mg/kg, ip administered daily for 21 days relative to vehicle. The format is toxicity, organism-based. The conditions noted are these: in vivo, 504 h, time 21 day.
Data set [2] can be described thus: AUC(0 to infinity) in C57 nude mouse plasma at 30 mg/kg, ip measured at 0.083 to 24 hrs by LC/MS/MS analysis. The format is ADME, organism-based. The arrangement: time lower 0.083 hrs, dose 30 mg/kg, time upper 24 hrs, route ip.
Data set [3] has as its system HeLa. Kind of data set: Induction of cell cycle arrest in human HeLa cells assessed as 4N cells at 0.4 uM measured after 24 hrs by propidium iodide staining based flow cytometric analysis analysis ( Rvb = 20.3%). The format is functional. (In general: In flow cytometry, cells or beads pass a laser one at a time.)
Data set [4] is described as follows: Acute toxicity in ICR male mouse assessed as body weight gain at 100 to 1000 mg/kg, ip measured daily for 14 days. Type of data set: organism-based. The conditions noted are these: in vivo, 336 h, dose 100-1000 mg/kg, time 14 day.
The subject of data set [5] is HeLa. In words: Induction of cell cycle arrest in human HeLa cells assessed as 4N cells at 0.2 uM measured after 24 hrs by propidium iodide staining based flow cytometric analysis analysis ( Rvb = 20.3%). Type of data set: functional.
Data set [6] has as its system HeLa. Kind of data set: Induction of apoptosis in human HeLa cells assessed as viable cells at 0.2 uM measured after 24 hrs by Annexin V-FITC/7-AAD staining based flow cytometric analysis (reference value: 70.1%). The format is functional. The conditions noted are these: read-out: Activity.
Data set [7] relates to HeLa. In words: Induction of apoptosis in human HeLa cells assessed as early apoptotic cells at 0.2 uM measured after 24 hrs by Annexin V-FITC/7-AAD staining based flow cytometric analysis (reference value: 20.8%). The format is functional.
Data set [8] in a line: Acute toxicity against ICR mouse assessed as chronic progressive nephropathy in kidney at 1000 mg/kg, ip measured after 14 days by H and E staining method. The format is organism-based. Conditions: in vivo, 336 h, time 14 day.
Data set [9] relates to HeLa. Kind of data set: Antitumour activity against human HeLa cells xenografted in BABL/c mouse assessed as reduction in tumor weight at 60 mg/kg, ip administered daily for 21 days ( Rvb = 3.36 g). The format is functional. The conditions noted are these: time 21 day.
Data set [10] deals with Tubulin beta (Homo sapiens) (UniProt P68371+Q9H4B7+Q13509+P04350+Q3ZCM7+P07437+Q13885+Q9BVA1+Q9BUF5+A6NNZ2). In words: Binding affinity to beta-tubulin colchicine binding site in human HeLa cells assessed as decrease of adduct formation by measuring gray value measured at 25 uM incubated for 2 hrs followed by addition of EBI measured after 1.5 hrs by EBI competition based Western blotting analysis. Type of data set: cell-based. Conditions: time 3.5 hrs.

Data set [11] in a line: MRT in C57 nude mouse at 30 mg/kg, ip measured at 0.083 to 24 hrs by LC/MS/MS analysis. Type of data set: ADME, organism-based. The conditions noted are these: in vivo, time 0.083-24 hrs.
The nature of data set [12]: AUC(0 to t) in C57 nude mouse at 30 mg/kg, ip measured at 0.083 to 24 hrs by LC/MS/MS analysis. The format is ADME, organism-based. Set-up: dose 30 mg/kg, time upper 24 hrs, time lower 0.083 hrs, route ip. Conditions: in vivo.
For another data set, the target named is Tubulin (Homo sapiens) (UniProt P68371+Q9H4B7+P0DPH7+P68366+Q13509+Q71U36+P04350+Q3ZCM7+P07437+P68363+Q9BQE3+Q6PEY2+Q13885+Q9BVA1+Q9BUF5). In words: Induction of microtubule disruption in human HeLa cells assessed as loss of cellular structure at 0.1 to 0.2 uM measured after 24 hrs by DAPI staining based laser scanning confocal microscopic analysis. The format is cell-based. Conditions: dose 0.1-0.2 µM, DDE = dose-dependent effect.

Another data set addresses Tubulin (Sus scrofa) (UniProt P02554+P02550). Kind of data set: Inhibition of pig brain tubulin polymerization at 12.5 uM by spectrophotometer analysis relative to control. Conditions: Sus scrofa domesticus. The arrangement: scale not given: the % may be the effect or the level left.
The test system of data set [13] is HeLa. In words: Inhibition of colony formation in human HeLa cells at 100 nM and treated for every 48 hrs with fresh medium measured after 14 days by crystal violet staining method. The arrangement: scale not given: the % may be the effect or the level left. Conditions: time 14 day. Type of data set: functional.
Data set [14] deals with HeLa. In words: Induction of apoptosis in human HeLa cells assessed as viable cells at 0.4 uM measured after 24 hrs by Annexin V-FITC/7-AAD staining based flow cytometric analysis (reference value: 70.1%). The format is functional. The conditions noted are these: read-out: Activity.
Data set [15] deals with HeLa. Kind of data set: Induction of cell cycle arrest in human HeLa cells assessed as accumulation of cells at G2/M phase at 0.2 uM after 24 hrs by propidium iodide staining based flow cytometric analysis (reference value: 20.3%). The format is functional.
The subject of data set [16] is HeLa. In words: Antimigratory activity against human HeLa cells at 0.2 uM measured after 24 hrs by scratch wound healing based fluorescence inverted microscopic analysis. The format is functional.
Data set [17] relates to HeLa. Kind of data set: Induction of cell cycle arrest in human HeLa cells assessed as >4N cells at 3 nM measured after 24 hrs by propidium iodide staining based flow cytometric analysis analysis relative to control. Type of data set: functional.

Chain of Tubulin (Sus scrofa) (P02550 whole entry, looked up): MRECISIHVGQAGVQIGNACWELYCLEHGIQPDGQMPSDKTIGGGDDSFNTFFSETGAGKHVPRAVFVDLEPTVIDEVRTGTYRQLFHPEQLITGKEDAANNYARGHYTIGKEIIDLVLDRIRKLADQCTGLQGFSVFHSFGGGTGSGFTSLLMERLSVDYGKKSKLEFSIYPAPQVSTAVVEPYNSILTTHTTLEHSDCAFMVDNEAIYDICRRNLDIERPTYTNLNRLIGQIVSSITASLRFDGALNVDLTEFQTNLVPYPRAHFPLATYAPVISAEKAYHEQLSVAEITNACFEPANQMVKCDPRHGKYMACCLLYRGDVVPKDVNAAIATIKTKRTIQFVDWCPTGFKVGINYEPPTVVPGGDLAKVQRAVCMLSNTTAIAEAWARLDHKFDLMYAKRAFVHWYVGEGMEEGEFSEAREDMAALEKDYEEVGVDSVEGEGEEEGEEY
Chain of Tubulin (Sus scrofa) (P02554 whole entry, looked up): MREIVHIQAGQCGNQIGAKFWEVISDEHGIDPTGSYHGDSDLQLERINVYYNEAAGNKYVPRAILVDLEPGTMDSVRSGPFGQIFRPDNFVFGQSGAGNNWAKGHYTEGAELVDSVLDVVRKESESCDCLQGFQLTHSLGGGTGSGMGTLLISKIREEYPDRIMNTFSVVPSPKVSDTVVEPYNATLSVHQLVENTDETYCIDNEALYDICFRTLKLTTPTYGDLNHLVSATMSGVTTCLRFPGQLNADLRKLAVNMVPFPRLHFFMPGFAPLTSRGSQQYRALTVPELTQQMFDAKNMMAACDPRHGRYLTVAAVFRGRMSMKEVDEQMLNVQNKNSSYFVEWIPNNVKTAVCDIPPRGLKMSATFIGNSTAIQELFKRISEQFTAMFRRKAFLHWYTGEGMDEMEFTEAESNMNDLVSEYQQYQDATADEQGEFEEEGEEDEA

Usually AUC(0-inf) stands for the area under the concentration-time curve extrapolated to infinity. What is called MRT is a mean duration of stay, worked out from the concentration-time curve. As usually defined, the AUC(0-t) is exposure summed from dosing to a finite time, without extrapolation to infinity. As for `CCOc1ccc(-c2cncnc2-c2cc(OC)c(OC)c(OC)c2)cc1Cl`, the Activity was 36% in [1]; 71.7% in the data set with HeLa [3]; 8.1 g in data set [4]; 47.6% with HeLa [5]; 66.4% with HeLa [7]; “Non-Toxic” in data set [8]. Also, the Activity was 1.42 g with HeLa [9]; 1.17 in data set [10]; “Dde” at Tubulin (Homo sapiens); 77% at Tubulin (Sus scrofa); 100% in the data set with HeLa [13]; 47.6% in the data set with HeLa [15]. In the data set with HeLa [16], this molecule registered an Activity of 40%. The molecule also showed a total exposure AUC(0-inf) in data set [2] of 5940 ng·h/mL. Besides, the viability at 0.2 µM with HeLa [6] was 26.4%. This molecule also returned a mean residence time (MRT) in data set [11] of 1.77 h. The exposure AUC(0-t) in [12] worked out at 5610 ng·h/mL. For the same molecule, the viability at 0.4 µM in the data set with HeLa [14] stood at 11.5%.

For `COc1ccc(/C=C\c2cc(OC)c(OC)c(OC)c2)cc1O` [COMBRETASTATIN A4], in the data set on HeLa [17], the Activity is listed as 17%.
